Reference: the kinase profiling compilation of Christmann-Franck et al. (2016)

Tests used:
Assay in all cases: KINOMEscan competition binding
Settings in all cases: compound 10.0 µM
[1] = target: SIK1 (human) (UniProt P57059)
[2] = target: NUAK1 (human) (UniProt O60285)
[3] = target: ROS1 (human) (UniProt P08922)
[4] = target: ANKK1 (human) (UniProt Q8NFD2)
[5] = target: NEK9 (human) (UniProt Q8TD19)
[6] = target: FES (human) (UniProt P07332)
[7] = target: NLK (human) (UniProt Q9UBE8)
[8] = target: SYK (human) (UniProt P43405)
[9] = target: CAMK2A (human) (UniProt Q9UQM7)
[10] = target: TLK2 (human) (UniProt Q86UE8)
[11] = target: CSNK1A1L (human) (UniProt Q8N752)
Sequence of CSNK1A1L (human) (Q8N752 whole entry, looked up): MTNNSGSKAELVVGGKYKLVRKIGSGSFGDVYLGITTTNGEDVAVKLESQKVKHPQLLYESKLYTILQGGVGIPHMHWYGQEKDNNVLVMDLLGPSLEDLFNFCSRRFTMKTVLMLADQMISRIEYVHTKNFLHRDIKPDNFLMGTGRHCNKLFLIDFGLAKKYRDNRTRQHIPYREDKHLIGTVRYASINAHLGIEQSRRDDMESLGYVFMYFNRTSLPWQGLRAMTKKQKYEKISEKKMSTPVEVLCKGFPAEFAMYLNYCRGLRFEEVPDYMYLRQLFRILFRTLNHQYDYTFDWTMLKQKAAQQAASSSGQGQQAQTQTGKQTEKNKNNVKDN

[12] = target: SRPK1 (human) (UniProt Q96SB4)
Sequence of SRPK1 (human) (Q96SB4 whole entry, looked up): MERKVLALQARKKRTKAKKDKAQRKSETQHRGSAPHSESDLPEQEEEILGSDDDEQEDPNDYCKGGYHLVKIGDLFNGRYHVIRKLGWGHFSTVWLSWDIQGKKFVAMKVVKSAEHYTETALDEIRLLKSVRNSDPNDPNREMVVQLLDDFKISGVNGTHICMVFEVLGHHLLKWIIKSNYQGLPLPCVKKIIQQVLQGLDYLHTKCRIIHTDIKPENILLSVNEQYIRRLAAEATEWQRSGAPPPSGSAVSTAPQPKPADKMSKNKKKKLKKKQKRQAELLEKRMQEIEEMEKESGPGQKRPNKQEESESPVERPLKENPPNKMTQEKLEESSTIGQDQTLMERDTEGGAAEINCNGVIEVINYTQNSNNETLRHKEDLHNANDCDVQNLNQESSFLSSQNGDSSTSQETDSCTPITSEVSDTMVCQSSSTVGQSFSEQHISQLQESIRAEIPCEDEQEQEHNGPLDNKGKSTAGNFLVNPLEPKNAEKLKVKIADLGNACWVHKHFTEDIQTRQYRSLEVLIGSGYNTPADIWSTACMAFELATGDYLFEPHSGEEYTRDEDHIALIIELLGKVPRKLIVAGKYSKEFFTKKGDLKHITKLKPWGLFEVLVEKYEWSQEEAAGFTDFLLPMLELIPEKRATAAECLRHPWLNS

[13] = target: CDK17 (human) (UniProt Q00537)
[14] = target: CDKL2 (human) (UniProt Q92772)
[15] = target: STK36 (human) (UniProt Q9NRP7)
[16] = target: CDK2 (human) (UniProt P24941)
[17] = target: LTK (human) (UniProt P29376)
[18] = target: PDPK1 (human) (UniProt O15530)
[19] = target: TEC (human) (UniProt P42680)
[20] = target: SGK110 (human) (UniProt P0C264)
Sequence of SGK110 (human) (P0C264 whole entry, looked up): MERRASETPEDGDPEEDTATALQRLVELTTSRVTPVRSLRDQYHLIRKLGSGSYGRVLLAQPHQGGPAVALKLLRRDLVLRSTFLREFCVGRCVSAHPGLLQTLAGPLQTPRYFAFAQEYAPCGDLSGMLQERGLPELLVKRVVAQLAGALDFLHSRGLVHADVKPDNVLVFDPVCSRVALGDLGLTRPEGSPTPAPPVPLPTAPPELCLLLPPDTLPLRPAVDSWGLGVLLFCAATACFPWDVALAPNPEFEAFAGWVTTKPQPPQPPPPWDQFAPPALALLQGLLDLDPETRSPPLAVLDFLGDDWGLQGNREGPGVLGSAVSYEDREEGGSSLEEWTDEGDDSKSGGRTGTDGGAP

[21] = target: IKBKE (human) (UniProt Q14164)
[22] = target: PAK2 (human) (UniProt Q13177)
[23] = target: FLT4 (human) (UniProt P35916)
[24] = target: EPHA8 (human) (UniProt P29322)
Sequence of EPHA8 (human) (P29322 whole entry, looked up): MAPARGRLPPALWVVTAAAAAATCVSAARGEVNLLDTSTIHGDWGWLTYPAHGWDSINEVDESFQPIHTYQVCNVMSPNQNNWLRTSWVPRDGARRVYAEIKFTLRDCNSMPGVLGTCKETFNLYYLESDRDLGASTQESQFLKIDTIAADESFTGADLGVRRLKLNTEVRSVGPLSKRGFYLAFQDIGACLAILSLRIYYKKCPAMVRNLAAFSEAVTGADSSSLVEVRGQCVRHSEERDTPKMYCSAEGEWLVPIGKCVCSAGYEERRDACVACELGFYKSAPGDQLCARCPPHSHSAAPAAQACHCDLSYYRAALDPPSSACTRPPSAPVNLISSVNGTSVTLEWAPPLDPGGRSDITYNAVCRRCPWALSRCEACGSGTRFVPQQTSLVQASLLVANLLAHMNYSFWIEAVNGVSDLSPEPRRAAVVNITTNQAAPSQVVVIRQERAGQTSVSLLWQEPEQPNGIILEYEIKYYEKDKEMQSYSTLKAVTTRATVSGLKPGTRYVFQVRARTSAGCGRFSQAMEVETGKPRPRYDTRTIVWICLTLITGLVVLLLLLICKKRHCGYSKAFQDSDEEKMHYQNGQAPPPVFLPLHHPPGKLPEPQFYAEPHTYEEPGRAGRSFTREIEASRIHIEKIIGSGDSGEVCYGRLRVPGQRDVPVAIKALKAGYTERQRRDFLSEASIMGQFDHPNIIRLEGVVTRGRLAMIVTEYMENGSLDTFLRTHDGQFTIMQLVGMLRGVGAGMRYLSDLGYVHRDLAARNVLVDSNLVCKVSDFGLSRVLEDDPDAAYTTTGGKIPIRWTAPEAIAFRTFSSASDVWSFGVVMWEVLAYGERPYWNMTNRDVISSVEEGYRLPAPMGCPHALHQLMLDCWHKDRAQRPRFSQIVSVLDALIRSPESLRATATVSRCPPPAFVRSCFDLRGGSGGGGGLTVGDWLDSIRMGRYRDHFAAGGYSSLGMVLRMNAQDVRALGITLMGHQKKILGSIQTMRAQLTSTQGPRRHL

[25] = target: RPS6KA1 KD1 (human) (UniProt Q15418)
[26] = target: PTK2 (human) (UniProt Q05397)
[27] = target: IGF1R (human) (UniProt P08069)
[28] = target: MST4 (human) (UniProt Q9P289)
[29] = target: CDK15 (human) (UniProt Q96Q40)
Sequence of CDK15 (human) (Q96Q40 whole entry, looked up): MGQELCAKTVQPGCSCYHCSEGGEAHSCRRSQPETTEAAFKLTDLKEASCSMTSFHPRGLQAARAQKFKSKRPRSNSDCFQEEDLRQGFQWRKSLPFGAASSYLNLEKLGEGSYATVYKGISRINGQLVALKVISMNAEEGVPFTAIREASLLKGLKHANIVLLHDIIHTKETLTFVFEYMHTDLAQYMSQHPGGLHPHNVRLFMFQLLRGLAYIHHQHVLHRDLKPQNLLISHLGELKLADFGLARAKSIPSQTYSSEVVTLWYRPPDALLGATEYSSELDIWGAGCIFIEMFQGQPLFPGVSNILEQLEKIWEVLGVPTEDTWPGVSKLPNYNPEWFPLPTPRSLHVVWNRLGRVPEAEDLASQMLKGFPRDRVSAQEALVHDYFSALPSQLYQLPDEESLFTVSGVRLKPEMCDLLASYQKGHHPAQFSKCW

[30] = target: ROCK2 (human) (UniProt O75116)
[31] = target: HCK (human) (UniProt P08631)
[32] = target: ACVRL1 (human) (UniProt P37023)
[33] = target: ALK (human) (UniProt Q9UM73)
Sequence of ALK (human) (Q9UM73 whole entry, looked up): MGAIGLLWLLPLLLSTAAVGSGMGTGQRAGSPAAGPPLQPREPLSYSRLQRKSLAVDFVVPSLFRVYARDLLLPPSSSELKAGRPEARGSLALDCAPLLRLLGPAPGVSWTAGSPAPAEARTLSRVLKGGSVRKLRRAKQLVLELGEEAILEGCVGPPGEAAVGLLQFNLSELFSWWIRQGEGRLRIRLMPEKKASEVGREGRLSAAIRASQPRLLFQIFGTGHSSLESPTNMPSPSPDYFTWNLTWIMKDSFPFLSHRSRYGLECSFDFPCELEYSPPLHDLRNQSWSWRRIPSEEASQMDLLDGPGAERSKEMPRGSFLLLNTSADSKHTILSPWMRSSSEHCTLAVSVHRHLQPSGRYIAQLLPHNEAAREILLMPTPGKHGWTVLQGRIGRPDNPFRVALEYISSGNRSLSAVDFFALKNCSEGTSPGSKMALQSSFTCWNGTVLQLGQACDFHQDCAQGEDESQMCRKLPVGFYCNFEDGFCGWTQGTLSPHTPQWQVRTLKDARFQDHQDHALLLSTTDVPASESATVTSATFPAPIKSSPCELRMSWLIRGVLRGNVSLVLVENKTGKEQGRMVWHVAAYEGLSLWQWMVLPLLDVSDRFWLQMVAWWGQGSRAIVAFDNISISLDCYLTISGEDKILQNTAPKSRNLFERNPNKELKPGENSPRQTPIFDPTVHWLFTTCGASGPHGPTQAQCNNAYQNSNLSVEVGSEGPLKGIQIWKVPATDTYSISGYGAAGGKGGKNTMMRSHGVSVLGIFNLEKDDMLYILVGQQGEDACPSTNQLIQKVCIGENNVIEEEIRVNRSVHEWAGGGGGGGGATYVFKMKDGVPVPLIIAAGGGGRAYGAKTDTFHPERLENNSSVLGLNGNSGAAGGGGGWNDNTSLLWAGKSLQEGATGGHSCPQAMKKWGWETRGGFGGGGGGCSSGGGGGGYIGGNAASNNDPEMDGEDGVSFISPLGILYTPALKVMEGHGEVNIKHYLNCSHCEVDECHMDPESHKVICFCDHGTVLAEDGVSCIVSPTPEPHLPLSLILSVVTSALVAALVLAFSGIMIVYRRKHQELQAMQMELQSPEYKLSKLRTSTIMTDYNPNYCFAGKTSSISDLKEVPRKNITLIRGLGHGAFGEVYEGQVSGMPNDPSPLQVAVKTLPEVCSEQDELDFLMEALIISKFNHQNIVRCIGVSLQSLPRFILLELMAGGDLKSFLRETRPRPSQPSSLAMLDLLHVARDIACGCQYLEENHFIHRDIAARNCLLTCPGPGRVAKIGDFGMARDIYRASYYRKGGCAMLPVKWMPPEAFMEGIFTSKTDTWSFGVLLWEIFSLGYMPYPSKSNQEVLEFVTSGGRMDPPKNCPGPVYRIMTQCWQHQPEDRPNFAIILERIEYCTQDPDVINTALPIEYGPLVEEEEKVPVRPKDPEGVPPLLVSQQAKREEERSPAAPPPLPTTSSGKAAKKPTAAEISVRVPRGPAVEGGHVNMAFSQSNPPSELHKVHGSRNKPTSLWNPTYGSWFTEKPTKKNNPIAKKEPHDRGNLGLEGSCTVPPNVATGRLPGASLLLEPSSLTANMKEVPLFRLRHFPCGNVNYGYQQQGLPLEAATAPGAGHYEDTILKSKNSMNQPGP

[34] = tested on: ABL1 (human), P00519 [M351T]
[35] = tested on: FGFR3 (human), P22607 [G697C]
[36] = target: MYO3A (human) (UniProt Q8NEV4)
[37] = tested on: ABL1 (human), P00519 [T315I]
[38] = target: ERBB2 (human) (UniProt P04626)
[39] = target: CAMK1G (human) (UniProt Q96NX5)
[40] = target: MET (human) (UniProt P08581)
[41] = target: INSRR (human) (UniProt P14616)
[42] = target: YES1 (human) (UniProt P07947)
[43] = target: MUSK (human) (UniProt O15146)

Sequence of NUAK1 (human) (O60285 whole entry, looked up): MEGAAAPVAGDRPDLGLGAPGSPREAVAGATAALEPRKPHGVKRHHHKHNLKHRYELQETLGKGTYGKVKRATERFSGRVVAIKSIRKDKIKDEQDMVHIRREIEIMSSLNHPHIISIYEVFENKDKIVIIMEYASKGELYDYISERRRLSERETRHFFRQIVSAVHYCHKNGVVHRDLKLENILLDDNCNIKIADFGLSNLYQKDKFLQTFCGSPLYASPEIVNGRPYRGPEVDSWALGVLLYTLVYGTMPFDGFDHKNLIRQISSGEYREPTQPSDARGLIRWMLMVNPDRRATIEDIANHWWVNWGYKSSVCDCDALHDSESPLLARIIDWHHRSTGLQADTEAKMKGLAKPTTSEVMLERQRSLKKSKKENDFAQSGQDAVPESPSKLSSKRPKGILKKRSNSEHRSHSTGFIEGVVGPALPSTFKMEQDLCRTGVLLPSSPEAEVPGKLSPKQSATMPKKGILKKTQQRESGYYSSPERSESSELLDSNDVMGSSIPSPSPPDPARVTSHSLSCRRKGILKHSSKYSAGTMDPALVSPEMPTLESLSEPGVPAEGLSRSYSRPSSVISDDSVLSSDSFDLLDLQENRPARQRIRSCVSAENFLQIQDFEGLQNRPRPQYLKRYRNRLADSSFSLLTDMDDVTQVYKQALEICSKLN

- kinase still bound, per cent of control [1]: 100%
- kinase still bound, per cent of control [2]: 77%
- kinase still bound, per cent of control [3]: 100%
- kinase still bound, per cent of control [4]: 70%
- kinase still bound, per cent of control [6]: 100%
- kinase still bound, per cent of control [7]: 97%
- kinase still bound, per cent of control [8]: 100%
- kinase still bound, per cent of control [9]: 7.8%
- kinase still bound, per cent of control [10]: 99%
- kinase still bound, per cent of control [11]: 100%
- kinase still bound, per cent of control [12]: 25%
- kinase still bound, per cent of control [13]: 85%
- kinase still bound, per cent of control [14]: 67%
- kinase still bound, per cent of control [15]: 85%
- kinase still bound, per cent of control [16]: 73%
- kinase still bound, per cent of control [17]: 100%
- kinase still bound, per cent of control [18]: 100%
- kinase still bound, per cent of control [19]: 84%
- kinase still bound, per cent of control [20]: 100%
- kinase still bound, per cent of control [21]: 62%
- kinase still bound, per cent of control [22]: 53%
- kinase still bound, per cent of control [23]: 90%
- kinase still bound, per cent of control [24]: 76%
- kinase still bound, per cent of control [25]: 71%
- kinase still bound, per cent of control [26]: 79%
- kinase still bound, per cent of control [27]: 100%
- kinase still bound, per cent of control [28]: 80%
- kinase still bound, per cent of control [29]: 50%
- kinase still bound, per cent of control [30]: 56%
- kinase still bound, per cent of control [31]: 100%
- kinase still bound, per cent of control [32]: 100%
- kinase still bound, per cent of control [33]: 54%
- kinase still bound, per cent of control [34]: 49%
- kinase still bound, per cent of control [35]: 100%
- kinase still bound, per cent of control [36]: 46%
- kinase still bound, per cent of control [37]: 57%
- kinase still bound, per cent of control [38]: 57%
- kinase still bound, per cent of control [39]: 85%
- kinase still bound, per cent of control [40]: 97%
- kinase still bound, per cent of control [41]: 86%
- kinase still bound, per cent of control [42]: 97%
- kinase still bound, per cent of control [43]: 97%
SMILES: O=C1NC(=O)/C(=C/c2c[nH]c(=O)c(-c3ccc(N4CCNCC4)nc3)c2)S1
- kinase still bound, per cent of control [5]: 71%
